In PubChem BioAssay (NCI):
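Test compounds were applied to cells in 96-well plates for 48 hours at 5 doses. TGI is the concentration that stops growth completely.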

How the values were obtained:
Assay in all cases: DTP human tumour cell line panel, 48 h
[1] = tested on: 786-0 renal
[2] = tested on: A498 renal
[3] = tested on: A549 NSCLC
[4] = tested on: ACHN renal
[5] = tested on: CAKI-1 renal
[6] = tested on: CCRF-CEM leukemia
[7] = tested on: COLO 205 colon
[8] = tested on: DLD-1 colon
[9] = tested on: DMS 114 small cell lung
[10] = tested on: DMS 273 small cell lung
[11] = tested on: EKVX NSCLC
[12] = tested on: HCC-2998 colon
[13] = tested on: HCT-116 colon
[14] = tested on: HCT-15 colon
[15] = tested on: HL-60(TB) leukemia
[16] = tested on: HOP-18 NSCLC
[17] = tested on: HOP-62 NSCLC
[18] = tested on: HOP-92 NSCLC
[19] = tested on: HT29 colon
[20] = tested on: IGROV1 ovarian
[21] = tested on: K-562 leukemia
[22] = tested on: KM12 colon
[23] = tested on: KM20L2 colon
[24] = tested on: LOX IMVI melanoma
[25] = tested on: LXFL 529 NSCLC
[26] = tested on: M14 melanoma
[27] = tested on: M19-MEL melanoma
[28] = tested on: MALME-3M melanoma
[29] = tested on: MOLT-4 leukemia
[30] = tested on: NCI-H226 lung
[31] = tested on: NCI-H23 lung
[32] = tested on: NCI-H460 lung
[33] = tested on: NCI-H522 lung
[34] = tested on: OVCAR-3 ovarian
[35] = tested on: OVCAR-4 ovarian
[36] = tested on: OVCAR-5 ovarian
[37] = tested on: OVCAR-8 ovarian
[38] = tested on: RPMI-8226 leukemia
[39] = tested on: RXF 393 renal
[40] = tested on: RXF-631 renal
[41] = tested on: SF-268 CNS
[42] = tested on: SF-295 CNS
[43] = tested on: SF-539 CNS
[44] = tested on: SK-MEL-2 melanoma
[45] = tested on: SK-MEL-28 melanoma
[46] = tested on: SK-MEL-5 melanoma
[47] = tested on: SK-OV-3 ovarian
[48] = tested on: SN12C renal
[49] = tested on: SNB-19 CNS
[50] = tested on: SNB-75 CNS
[51] = tested on: SNB-78 CNS
[52] = tested on: SW-620 colon
[53] = tested on: TK-10 renal
[54] = tested on: U251 CNS
[55] = tested on: UACC-257 melanoma
[56] = tested on: UACC-62 melanoma
[57] = tested on: UO-31 renal
[58] = tested on: XF 498 CNS
[59] = tested on: SR leukemia

For `CCOC(=O)N1C(=O)C2C3C=CC(C2C1=O)C1C2C(=O)N(C(=O)OCC)C(=O)C2C31` (stereo unspecified), the TGI [1] was greater than 100 µM, the TGI [2] was greater than 100 µM and the TGI [3] was greater than 100 µM. The TGI [4] was greater than 100 µM, the TGI [5] was greater than 100 µM and the TGI [6] was greater than 100 µM. The TGI [7] was greater than 100 µM, the TGI [8] was greater than 100 µM and the TGI [9] was greater than 70 µM. It also gave a TGI [10] greater than 60.7 µM, a TGI [11] greater than 100 µM and a TGI [12] greater than 100 µM. It also gave a TGI [13] greater than 55.2 µM, a TGI [14] greater than 67.2 µM and a TGI [15] of 41.1 µM. The TGI [16] was greater than 100 µM, the TGI [17] was greater than 100 µM and the TGI [18] was greater than 100 µM. The TGI [19] was greater than 100 µM, the TGI [20] was greater than 100 µM and the TGI [21] was greater than 100 µM. For the same compound, the TGI [22] was greater than 100 µM, the TGI [23] was greater than 100 µM and the TGI [24] was greater than 64 µM. The TGI [25] was greater than 100 µM, the TGI [26] was greater than 100 µM and the TGI [27] was greater than 100 µM. For the same compound, the TGI [28] was greater than 100 µM, the TGI [29] was greater than 100 µM and the TGI [30] was greater than 100 µM. The TGI [31] was greater than 100 µM, the TGI [32] was greater than 64.4 µM and the TGI [33] was greater than 100 µM. The TGI [34] was greater than 100 µM, the TGI [35] was greater than 100 µM and the TGI [36] was greater than 100 µM. For the same compound, the TGI [37] was greater than 100 µM, the TGI [38] was greater than 100 µM and the TGI [39] was greater than 100 µM. The TGI [40] was greater than 100 µM, the TGI [41] was greater than 100 µM and the TGI [42] was greater than 100 µM. For the same compound, the TGI [43] was greater than 100 µM, the TGI [44] was greater than 100 µM and the TGI [45] was greater than 100 µM. The TGI [46] was greater than 100 µM, the TGI [47] was greater than 100 µM and the TGI [48] was greater than 100 µM. The TGI [49] was greater than 100 µM, the TGI [50] was greater than 100 µM and the TGI [51] was greater than 100 µM. It also gave a TGI [52] greater than 59.4 µM, a TGI [53] greater than 100 µM and a TGI [54] greater than 100 µM. It also gave a TGI [55] greater than 100 µM, a TGI [56] greater than 100 µM and a TGI [57] greater than 100 µM. For the same compound, the TGI [58] was greater than 100 µM.
Compound `Nc1nc(-c2ccccc2)cc(-c2ccccc2O)n1` has a TGI [1] greater than 100 µM, a TGI [2] greater than 100 µM and a TGI [3] greater than 100 µM. It also gave a TGI [4] greater than 100 µM, a TGI [5] greater than 100 µM and a TGI [6] greater than 100 µM. The TGI [7] was greater than 100 µM, the TGI [8] was greater than 100 µM and the TGI [9] was greater than 100 µM. For the same compound, the TGI [10] was greater than 100 µM, the TGI [11] was greater than 100 µM and the TGI [12] was greater than 100 µM. It also gave a TGI [13] of 49 µM, a TGI [15] of 43.5 µM and a TGI [16] greater than 100 µM. It also gave a TGI [17] of 74.9 µM, a TGI [18] greater than 100 µM and a TGI [19] greater than 100 µM. It also gave a TGI [20] greater than 100 µM, a TGI [21] greater than 100 µM and a TGI [22] of 79.5 µM. For the same compound, the TGI [23] was greater than 100 µM, the TGI [24] was greater than 100 µM and the TGI [25] was greater than 100 µM. For the same compound, the TGI [26] was greater than 100 µM, the TGI [27] was greater than 100 µM and the TGI [28] was greater than 100 µM. The TGI [29] was 80.2 µM, the TGI [30] was 53.2 µM and the TGI [31] was greater than 100 µM. For the same compound, the TGI [32] was greater than 100 µM, the TGI [33] was greater than 100 µM and the TGI [34] was greater than 100 µM. The TGI [35] was greater than 100 µM, the TGI [36] was 68.2 µM and the TGI [37] was greater than 100 µM. For the same compound, the TGI [38] was 75.8 µM, the TGI [39] was 53.9 µM and the TGI [40] was greater than 100 µM. It also gave a TGI [41] greater than 100 µM, a TGI [42] greater than 100 µM and a TGI [43] greater than 100 µM. For the same compound, the TGI [45] was greater than 100 µM, the TGI [47] was greater than 100 µM and the TGI [48] was greater than 100 µM. For the same compound, the TGI [49] was greater than 100 µM, the TGI [50] was 82.4 µM and the TGI [51] was greater than 100 µM. It also gave a TGI [59] greater than 100 µM, a TGI [52] greater than 100 µM and a TGI [53] of 98.2 µM. It also gave a TGI [54] greater than 100 µM, a TGI [55] greater than 100 µM and a TGI [56] greater than 100 µM. For the same compound, the TGI [57] was 28.7 µM and the TGI [58] was greater than 100 µM.
`O=[N+]([O-])c1ccc(N=Nc2c(O)[nH]c3ccc(Br)cc23)cc1` showed a TGI [1] of 25.2 µM, a TGI [2] of 49.1 µM and a TGI [3] of 44.9 µM. The TGI [4] was 42.7 µM, the TGI [5] was greater than 58.4 µM and the TGI [6] was greater than 49.1 µM. It also gave a TGI [7] greater than 68.7 µM, a TGI [8] greater than 46.8 µM and a TGI [9] of 47.7 µM. It also gave a TGI [10] of 24 µM, a TGI [11] of 58.9 µM and a TGI [12] greater than 100 µM. It also gave a TGI [13] of 80.1 µM, a TGI [14] greater than 74.3 µM and a TGI [15] of 25.2 µM. The TGI [16] was 40.6 µM, the TGI [17] was 33.8 µM and the TGI [18] was 26.5 µM. It also gave a TGI [19] greater than 100 µM, a TGI [20] greater than 53.2 µM and a TGI [21] greater than 43 µM. For the same compound, the TGI [22] was greater than 100 µM, the TGI [23] was greater than 100 µM and the TGI [24] was 48.8 µM. The TGI [25] was greater than 68.7 µM, the TGI [26] was greater than 52.8 µM and the TGI [27] was 34.7 µM. For the same compound, the TGI [28] was 58 µM, the TGI [29] was greater than 51.7 µM and the TGI [30] was 37.2 µM. For the same compound, the TGI [31] was greater than 51.3 µM, the TGI [32] was greater than 46.5 µM and the TGI [33] was greater than 87.7 µM. It also gave a TGI [34] of 45.9 µM, a TGI [35] of 33.4 µM and a TGI [37] of 28.3 µM. For the same compound, the TGI [38] was 45.6 µM, the TGI [39] was 35.6 µM and the TGI [40] was 33 µM. It also gave a TGI [41] of 34.8 µM, a TGI [42] of 25 µM and a TGI [43] of 32.1 µM. The TGI [44] was 99.2 µM, the TGI [45] was 32.9 µM and the TGI [46] was greater than 68 µM. The TGI [47] was 45.6 µM, the TGI [48] was greater than 31.6 µM and the TGI [49] was 36.6 µM. For the same compound, the TGI [50] was greater than 48.1 µM, the TGI [51] was 42.3 µM and the TGI [59] was greater than 53.9 µM. It also gave a TGI [52] greater than 100 µM, a TGI [53] of 36 µM and a TGI [54] of 38.2 µM. The TGI [55] was 43.4 µM, the TGI [56] was greater than 51.2 µM and the TGI [57] was greater than 73.5 µM. For the same compound, the TGI [58] was 53.7 µM.
`N#C/C(=C\c1c(Cl)cccc1Cl)c1ccccc1` gave a TGI [1] greater than 56.6 µM, a TGI [2] of 25.4 µM and a TGI [3] greater than 100 µM. The TGI [4] was greater than 100 µM, the TGI [5] was greater than 100 µM and the TGI [6] was 11.9 µM. The TGI [7] was 7.16 µM, the TGI [8] was greater than 100 µM and the TGI [9] was greater than 39.5 µM. It also gave a TGI [10] of 11.8 µM, a TGI [11] greater than 100 µM and a TGI [12] greater than 100 µM. It also gave a TGI [13] greater than 100 µM, a TGI [14] greater than 100 µM and a TGI [15] of 15.9 µM. It also gave a TGI [16] greater than 100 µM, a TGI [17] greater than 31.4 µM and a TGI [18] of 41.1 µM. For the same compound, the TGI [19] was greater than 59.5 µM, the TGI [20] was greater than 100 µM and the TGI [21] was greater than 100 µM. For the same compound, the TGI [22] was greater than 100 µM, the TGI [23] was 21.8 µM and the TGI [24] was greater than 68.5 µM. The TGI [25] was greater than 100 µM, the TGI [26] was greater than 76.3 µM and the TGI [27] was greater than 100 µM. It also gave a TGI [28] of 56 µM, a TGI [29] greater than 66.5 µM and a TGI [30] greater than 48.9 µM. The TGI [31] was greater than 87.9 µM, the TGI [32] was greater than 58.5 µM and the TGI [33] was 40.9 µM. It also gave a TGI [34] of 19.9 µM, a TGI [35] greater than 96.3 µM and a TGI [36] greater than 100 µM. It also gave a TGI [37] greater than 100 µM, a TGI [38] greater than 100 µM and a TGI [39] of 25.7 µM. The TGI [40] was greater than 100 µM, the TGI [41] was greater than 100 µM and the TGI [42] was 65.5 µM. The TGI [43] was 9.53 µM, the TGI [44] was 39.3 µM and the TGI [45] was greater than 100 µM. The TGI [46] was greater than 46.8 µM, the TGI [47] was greater than 65.9 µM and the TGI [48] was greater than 69.5 µM. It also gave a TGI [49] of 78.5 µM, a TGI [50] of 7.76 µM and a TGI [51] greater than 66.8 µM. For the same compound, the TGI [59] was 6.04 µM, the TGI [52] was greater than 100 µM and the TGI [53] was greater than 100 µM. The TGI [54] was greater than 90.1 µM, the TGI [55] was greater than 100 µM and the TGI [56] was greater than 31.3 µM. For the same compound, the TGI [57] was greater than 100 µM and the TGI [58] was 33.4 µM.
